Our source for the EC50, Emax and activation values is US20230159509A1 (Amathus Therapeutics, Inc., priority 2020, published 2023).

The target in this assay is T1, TRAP1 enzyme (Homo sapiens, UniProt Q12931).
T1 construct: 150 nM Trap1 enzyme was incubated with various concentrations of the test compound
T1 sequence (Q12931 60-704): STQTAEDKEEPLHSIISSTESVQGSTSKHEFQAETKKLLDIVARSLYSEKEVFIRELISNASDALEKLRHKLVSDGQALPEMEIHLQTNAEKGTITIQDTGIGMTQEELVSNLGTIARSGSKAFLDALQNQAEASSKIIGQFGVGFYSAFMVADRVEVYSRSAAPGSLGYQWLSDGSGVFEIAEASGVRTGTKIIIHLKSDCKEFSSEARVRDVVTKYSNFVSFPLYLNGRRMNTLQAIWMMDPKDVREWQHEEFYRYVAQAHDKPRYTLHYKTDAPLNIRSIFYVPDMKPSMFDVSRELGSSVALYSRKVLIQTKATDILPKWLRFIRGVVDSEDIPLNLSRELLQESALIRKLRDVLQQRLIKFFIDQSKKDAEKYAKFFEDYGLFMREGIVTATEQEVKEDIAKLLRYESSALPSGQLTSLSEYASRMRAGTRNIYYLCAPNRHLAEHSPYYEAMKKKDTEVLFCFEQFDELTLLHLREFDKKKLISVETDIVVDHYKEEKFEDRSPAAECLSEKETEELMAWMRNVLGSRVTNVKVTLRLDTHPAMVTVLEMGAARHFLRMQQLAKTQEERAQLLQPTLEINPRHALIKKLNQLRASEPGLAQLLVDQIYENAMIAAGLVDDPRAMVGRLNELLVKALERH
The experiment in a line: ADP Glo assay of TRAP1 ATPase activity. Format: biochemical. The conditions noted are these: for EC50: concentration for half maximal activation, read-out: ADP GLO DRC: GeoMean EC50; for Emax: maximal percent activation, read-out: ADP GLO DRC: Mean Emax; for activation at 50 µM: 1 h, compound concentration 50 μM, read-out: ADP-Glo Percent Activation at 50 μM. The essentials: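 ADP-Glo luminescence quantifying ADP from 150 nM TRAP1 preincubated 30 min at 37° C with compound (0.79–100 μM), then 20 μM ATP for 60 min at 37° C. Buffer: 25 mM Pipes pH 7.5, 40 mM KCl, 0.05 mM MgCl2, EGTA, BSA, detergents. ADP from ATP/ADP standard curve; Emax and EC50 from sigmoidal fit.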

A value given as a limit tells only on which side of the number the result lay.

Regarding `COc1ncc(NC(=O)c2csc(-c3ccccc3)n2)cc1S(=O)(=O)Nc1cc(C)cnc1C` [compound 1792], the EC50 lay in the range of 20 to 100 µM and the maximal response (Emax) fell in the range of 119 to 159%. On to `COc1ncc(NC(=O)c2cscn2)cc1S(=O)(=O)Nc1c(C)cccc1C` [compound 2650], for which the activation at 50 µM fell in the range of 120 to 150%. On to `COc1ncc(NC(=O)c2nnsc2C(C)C)cc1S(=O)(=O)Nc1c(C)cccc1C` [compound 2734], for which the activation at 50 µM is 181 to 352%. Regarding `COc1ncc(NC(=O)c2ccccc2CN2CCOCC2)cc1S(=O)(=O)Nc1c(C)cccc1C` [compound 2634], the activation at 50 µM fell in the range of 181 to 352%. `COc1ncc(NC(=O)c2csc(-c3cccc(OCC(O)CO)n3)n2)cc1S(=O)(=O)Nc1c(C)cccc1C` (stereo not drawn) [compound 2463]: the concentration giving a half-maximal response (EC50) was below 10 µM and the maximal effect (Emax) was in the range of 200 to 300%. On the same counts, the results for `[2H]c1c([2H])c([2H])c(-c2nc(C(=O)Nc3cnc(OC)c(S(=O)(=O)Nc4c(C)cccc4C)c3)cs2)c([2H])c1[2H]` [compound 2500] are below 10 µM and 119 to 159%. On the same counts, the results for `Cc1c[n+]([O-])c(NC(=O)c2ncc(-c3ccccc3)o2)cc1S(=O)(=O)Nc1ccc(Cl)cc1` [compound 1420, 4-(N-(4-chlorophenyl)sulfamoyl)-5-methyl-2-(5-phenyloxazole-2-carboxamido) pyridine 1-oxide] are 10 to 20 µM and 119 to 159%.

For `COc1ncc(NC(=O)c2nc(C)cs2)cc1S(=O)(=O)Nc1c(C)cccc1C` [compound 2629], the activation at 50 µM lay in the range of 181 to 352%. On the same count and under the same terms, with `COc1ncc(NC(=O)c2ccc(OC(F)(F)F)cc2)cc1S(=O)(=O)Nc1c(C)cccc1C` [compound 2531] the figure was 120 to 150%; with `COc1ncc(NC(=O)c2cccc(CN3CCCC3)c2)cc1S(=O)(=O)Nc1c(C)cccc1C` [compound 2591], 151 to 180%. For the compound `COc1ncc(NC(=O)c2ccnc(N(C)C)n2)cc1S(=O)(=O)Nc1c(C)cccc1C` [compound 2641], the activation at 50 µM lay in the range of 181 to 352%.

With `COc1ncc(NC(=O)c2ccc(OCC(F)(F)F)cc2)cc1S(=O)(=O)Nc1c(C)cccc1C` [compound 2662], the activation at 50 µM fell in the range of 120 to 150%. Still for that read-out and setting: with `COc1ncc(NC(=O)c2ncn(C)c2C)cc1S(=O)(=O)Nc1c(C)cccc1C` [compound 2571] the figure was 151 to 180%. For `COc1ncc(NC(=O)c2csc(C(F)(F)F)n2)cc1S(=O)(=O)Nc1c(C)cccc1C` [compound 2498], the concentration giving a half-maximal response (EC50) was 10 to 20 µM and the maximal effect (Emax) is 160 to 199%. Turning to `COCCn1nccc1C(=O)Nc1cnc(OC)c(S(=O)(=O)Nc2c(C)cccc2C)c1` [compound 2679], the activation at 50 µM lay within 120 to 150%. `COc1ncc(NC(=O)c2ccc(NC(=O)C3CC3)cc2)cc1S(=O)(=O)Nc1c(C)cccc1C` [compound 2671]: the activation at 50 µM lay within 120 to 150%. Consider `COc1ncc(NC(=O)c2csc(-c3ccccc3OCC(O)CO)n2)cc1S(=O)(=O)Nc1c(C)cccc1C` (stereo not drawn) [compound 2427], for which the EC50 was below 10 µM and the maximal response (Emax) was 200 to 300%. In the case of `COc1ncc(NC(=O)c2ccc(Cn3cc(Cl)cn3)cc2)cc1S(=O)(=O)Nc1c(C)cccc1C` [compound 1402, 4-((4-chloro-1H-pyrazol-1-yl)methyl)-N-(5(N (2,6dimethylphenyl)sulfamoyl)-6-methoxypyridin-3-yl)benzamide], the concentration giving a half-maximal response (EC50) was in the range of 10 to 20 µM and the Emax lay within 160 to 199%.

As for `COc1ncc(NC(=O)c2ccc(N3CCN(C)CC3)nc2)cc1S(=O)(=O)Nc1c(C)cccc1C` [compound 2775], the activation at 50 µM fell in the range of 181 to 352%. Consider `COc1ncc(NC(=O)c2cnn3c2CCC3)cc1S(=O)(=O)Nc1c(C)cccc1C` [compound 2557], for which the activation at 50 µM is 151 to 180%. As to `COc1ncc(NC(=O)c2coc(-c3ccccc3)n2)cc1S(=O)(=O)Nc1c(C)cc(C#N)cc1C` [compound 1965, N-(5-(N-(4-cyano-2,6-dimethylphenyl)sulfamoyl)-6-methoxypyridin-3-yl)-2-phenyloxazole-4-carboxamide], the half-maximal effective concentration (EC50) was below 10 µM and the maximum response (Emax) was 119 to 159%. Regarding `COc1ncc(NC(=O)c2cncc(N3CCCCC3)c2)cc1S(=O)(=O)Nc1c(C)cccc1C` [compound 2622], the activation at 50 µM lay in the range of 120 to 150%. On to `COc1ncc(NC(=O)c2ncc(-c3ccccc3)o2)cc1S(=O)(=O)Nc1cc(-c2ccccc2C)nn1C` [compound 1567], for which the EC50 was in the range of 20 to 100 µM and the maximal response (Emax) was in the range of 200 to 300%. On the same counts, the results for `COc1ncc(NC(=O)c2ncc(-c3ccccc3)o2)cc1S(=O)(=O)Nc1cc(C)n(C(C)C)n1` [compound 1571] are 10 to 20 µM and 160 to 199%.

As for `COc1ncc(NC(=O)c2ccnc3c2OCCC3)cc1S(=O)(=O)Nc1c(C)cccc1C` [compound 1364, N-(5-(N-(2,6-dimethylphenyl)sulfamoyl)-6-methoxypyridin-3-yl)-3,4-dihydro-2H-pyrano[3,2-b]pyridine-8-carboxamide], the EC50 is 20 to 100 µM and the maximum response (Emax) is above 300%. In the case of `CCn1ccc(C(=O)Nc2cnc(OC)c(S(=O)(=O)Nc3c(C)cccc3C)c2)n1` [compound 2619], the activation at 50 µM was in the range of 120 to 150%. As for `COc1ncc(NC(=O)c2ncc(-c3ccccc3)o2)cc1S(=O)(=O)Nc1cc(C(F)(F)F)n[nH]1` [compound 2361], the concentration for a half-maximal effect (EC50) was in the range of 20 to 100 µM and the Emax lay in the range of 119 to 159%.

`Cc1cccc(C)c1NS(=O)(=O)c1cc(NC(=O)c2csc(-c3ccccc3)n2)cnc1OCC(O)CO` (stereo not drawn) [compound 2418]: the EC50 is below 10 µM and the maximum response (Emax) lay in the range of 160 to 199%. For the compound `COc1ncc(NC(=O)c2cc(Cl)n[nH]2)cc1S(=O)(=O)Nc1c(C)cccc1C` [compound 2730], the activation at 50 µM is 181 to 352%. The same measure, in the same setting: the result for `CCn1cc(C(=O)Nc2cnc(OC)c(S(=O)(=O)Nc3c(C)cccc3C)c2)cn1` [compound 2750] reads 120 to 150%. `CCOc1cc(NS(=O)(=O)c2cc(NC(=O)c3csc(-c4ccccc4)n3)cnc2OC)ccn1` [compound 1773]: the EC50 lay within 20 to 100 µM and the Emax is 119 to 159%. With `COc1ncc(NC(=O)c2onc3c2CCCC3)cc1S(=O)(=O)Nc1c(C)cccc1C` [compound 2693], the activation at 50 µM fell in the range of 120 to 150%. The same measure, in the same setting: the result for `COc1ncc(NC(=O)c2ccc(S(C)(=O)=O)cc2)cc1S(=O)(=O)Nc1c(C)cccc1C` [compound 2580] reads 120 to 150%. In the case of `COc1ncc(NC(=O)c2ncc(-c3ccccc3)o2)cc1S(=O)(=O)Nc1cc2ccccc2nc1C` [compound 1511], the concentration giving a half-maximal response (EC50) lay within 20 to 100 µM and the maximal response (Emax) is 119 to 159%.

In the case of `COc1ncc(NC(=O)c2cc(NC(C)=O)ccc2Cl)cc1S(=O)(=O)Nc1c(C)cccc1C` [compound 2669], the activation at 50 µM is 151 to 180%. On the same count and under the same terms, with `COc1nc2c(cc1C(=O)Nc1cnc(OC)c(S(=O)(=O)Nc3c(C)cccc3C)c1)CCC2` [compound 2790] the figure was 181 to 352%. As for `COc1ncc(NC(=O)c2ncc(-c3ccccc3)o2)cc1S(=O)(=O)Nc1cc(-c2ccc(C)cc2)nn1C` [compound 1568], the concentration for a half-maximal effect (EC50) was 20 to 100 µM and the maximum response (Emax) was in the range of 200 to 300%.

Turning to `COc1ncc(NC(=O)c2cn(C)c3ncccc23)cc1S(=O)(=O)Nc1ccc(Cl)cc1` [compound 1359, N-(5-(N-(4-chlorophenyl)sulfamoyl)-6-methoxypyridin-3-yl)-1-methyl-1H-pyrrolo [2,3-b]pyridine-3-carboxamide], the EC50 fell in the range of 20 to 100 µM and the maximal response (Emax) lay in the range of 119 to 159%.

Turning to `COc1ncc(NC(=O)c2coc(-c3cccnc3)n2)cc1S(=O)(=O)Nc1c(C)cccc1C` [compound 2387], the EC50 lay in the range of 20 to 100 µM and the maximal response (Emax) lay within 200 to 300%. On the same counts, the results for `COc1ncc(NC(=O)c2csc(-c3ccccc3)n2)cc1S(=O)(=O)Nc1ccccc1CO` [compound 2004] are 10 to 20 µM and 160 to 199%.

On to `COc1ncc(NC(=O)c2csc(-c3ccccc3)n2)cc1S(=O)(=O)Nc1c(C)csc1C` [compound 1985, N-(5-(N-(2,4-dimethylthiophen-3-yl)sulfamoyl)-6-methoxypyridin-3-yl)-2-phenylthiazole-4-carboxamide], for which the EC50 is below 10 µM and the maximal effect (Emax) was 160 to 199%. On the same counts, the results for `COc1ncc(NC(=O)c2cccc(-n3cncn3)c2)cc1S(=O)(=O)Nc1ccc(Cl)cc1` [compound 1204, N-(5-(N-(4-chlorophenyl)sulfamoyl)-6-methoxypyridin-3-yl)-3-(1H-1,2,4-triazol-1-yl)benzamide] are 10 to 20 µM and 160 to 199%. Consider `COc1ncc(NC(=O)c2cc(C)sn2)cc1S(=O)(=O)Nc1c(C)cccc1C` [compound 2716], for which the activation at 50 µM lay in the range of 181 to 352%. With `COc1ncc(NC(=O)c2cc(-n3ccnc3)ccn2)cc1S(=O)(=O)Nc1ccc(Cl)cc1` [compound 1203, N-(5-(N-(4-chlorophenyl)sulfamoyl)-6-methoxypyridin-3-yl)-4-(1H-imidazol-1-yl)picolinamide], the EC50 is 10 to 20 µM and the Emax was in the range of 160 to 199%.
